Measurements taken from patent US11273150B2, “Compositions and methods for the treatment of presbyopia” (priority 2018, dated 2022).
“And” between values parts separate entries of the source, which are not always exact repeats. Equal entries are not always repeated. Blank lines part the entries; values can stand above or below the compound they belong to.

How the values were obtained:
[1] = system: eye; test: Efficacy and comfort of various nonionic surfactants (Example 15, Table 10); design: species or system human; settings: in vivo
Description: Duration was excellent for each nonionic surfactant tested.

[2] = system: eye; settings: cited from earlier work
[3] = system: eye; test: Clinical observations stated in the description (miosis, duration, blur, redness, anterior chamber); assay type: in vivo, human
[4] = system: eye; test: Effect of concentration of aceclidine, brimonidine, guanfacine, fadolmidine, tropicamide and additives (Example 3); assay type: in vivo, human
Experimental: All percentages are w/v. Scores for nasal congestion, stinging initial, stinging, 3 min, redness initial, redness 15 min, whitening, pain and overall are out of 4.
“pt” reflects size of print materials, 4 being equivalent to 20/20 vision and 3 to 20/15 vision.
Baseline vision was 20.20 both eyes for distance; 20.70 right eye unaided for near; 20.80 left eye for near (best @ 16″).
D/C stands for discontinued after eye washing due to intolerable stinging.
All baseline vision data was based on vision corrected with distance contact lenses. Near vision was noted by subject as outstanding from 8 to 10 inches to the horizon at 30 minutes after installation for AB4T and AB6T.
AB4T and AB6T were repeated both monocularly and binocularly. Substantial improvement in depth perception, near point acuity to 3 pt (20.15), and near point distance (8″, 20.20) was noted when both eyes were treated vs. monocular treatment.

[5] = Aceclidine potency following storage (Example 19); assay type: physicochemical
[6] = Stability of aceclidine at 25° C. and 4° C. by HPLC (Example 10); assay type: physicochemical
Experimental: 20 samples of the above composition were divided evenly and stored at 25° C. and 4° C. Prior to storage, initial concentrations of aceclidine were measured using […] (“HPLC”). The amount of aceclidine in each solution was calculated by the area under the principal peak compared to a reference solution of aceclidine. Samples were then subject to storage for 3 months. Aceclidine measurements were taken at 1, 2 and 3 months.

[7] = system: emmetrope over the age of 45; test: Effects of pilocarpine and aceclidine with or without tropicamide and carrier on near and distance vision (FIG. 1); assay type: in vivo, human
Description: Subject is an emmetrope over the age of 45 with a baseline near vision of 20.100 and baseline distance vision of 20.20. Topical administration to the eye of 1% w/v pilocarpine in saline solution results in an improvement of near vision to 20.40 (8a), however this improvement comes at the expense of a reduction in distance vision to 20.100 (8b). […] A proper drug carrier can also have a beneficial effect.

[8] = system: presbyopic subjects; test: Effect of aceclidine on vision of presbyopic subjects aged 47 to 67 years (Example 1); assay type: in vivo, human; settings: for Effect: duration of effect; for L Post Dist: left eye distance vision; for L Post Dist / L Post Near / R Post Dist / R Post Near: Post Gtt 15″; for R Post Dist: right eye distance vision
Experimental: As aceclidine is an […], the clinical effectiveness may vary with different ratios. For the present studies a nearly exact 50:50 ratio of stereoisomers was measured as best determined by polarimetry.
After administration of the composition all subjects experienced an improvement in their near vision that lasted from 7 to 12 hours.

[9] = Aceclidine total related substances after storage with or without Mylar lined pouches (Example 18); assay type: physicochemical
Experimental: Aceclidine total related substances was recorded at 1, 2, 3 and 6 months.
Mylar® was used as the source of biaxially-oriented polyethylene terephthalate. Mylar is a registered trademark of and available from DuPont Teijin Films US Limited.

[10] = Pouched (5 C.), first group (initial 99.70%)
[11] = Pouched (5 C.), second group (initial 99.60%)
[12] = Pouched (25 C.), first group (initial 99.70%)
[13] = Pouched (25 C.), second group (initial 99.60%)
[14] = aceclidine 1.1% w/v + 0.125% w/v tropicamide, subjects 4 and 5
[15] = aceclidine 1.5% w/v in HPβCD/CMC/NaCl/BAK, one line per subject
[16] = Pouched (5 C.), first listing (r9)
[17] = Pouched (5 C.), second listing (r12)
[18] = Pouched (25 C.), first listing (r10)
[19] = Pouched (25 C.), second listing (r13)

Redness 1 hr [1]: 0.5 | Stinging [1]: 0.25
Compound: Polysorbate 80

distance blur ([3]; pilocarpine instilled monocularly): 2-3 lines
Compound: CC[C@@H]1C(=O)OC[C@@H]1Cc1cncn1C [pilocarpine]
pupil size ([3]; upon instillation of 1.0% pilocarpine, or larger in most subjects): ≥ 2.3 mm

Redness 1 hr [1]: 0.25- | Stinging [1]: 0-2
Compound: Tyloxapol

More lines, now with the values behind:

Compound: Polyoxyl 35 castor oil
Redness 1 hr [1]: 0.25 | Stinging [1]: 0

Compound: Poloxamer 407
Redness 1 hr [1]: 1 | Stinging [1]: 0.5

Compound: Poloxamer 188
Redness 1 hr [1]: 0.25- | Stinging [1]: 0-2

Compound: Brc1c(NC2=NCCN2)ccc2nccnc12 [brimonidine]
rebound redness, patients ([2]; brimonidine 0.20% w/v (Alphagan®) twice daily): 25% | tachyphylaxis of pupil modulation, treated subjects ([2]; brimonidine 0.20% w/v topically for night vision, within four weeks of use, almost): ~100%

Compound: CC(=O)OC1CN2CCC1CC2 (stereo not drawn) [Aceclidine, aceclidine]
corrected near and distance vision to 20.20 or better, duration ([4]; aceclidine 1.55% w/v): at least 6 hours | noticeable affect lasting ([4]; aceclidine 1.55% w/v): about 7.5 hours | size of the pupil ([4]; aceclidine 1.55% w/v, 30 minutes after topical instillation): about 1.63 mm | near vision improvement ([4]; aceclidine lowered to 1.25% w/v (not shown)): 20.25-20.30 | Aceclidine Potency, One Month Result [5, 10]: 100.0% | Aceclidine Potency, Six Month Result [5, 10]: 100.8% | Aceclidine Potency, Three Month Result [5, 10]: 99.7% | Percent Change Between Initial and Six Month Results [5, 10]: 1.1% | Aceclidine Potency, One Month Result [5, 11]: 99.5% | Aceclidine Potency, Six Month Result [5, 11]: 102.2% | Aceclidine Potency, Three Month Result [5, 11]: 102.3% | Percent Change Between Initial and Six Month Results [5, 11]: 2.6% | Aceclidine Potency, One Month Result [5, 12]: 98.4% | Aceclidine Potency, Six Month Result [5, 12]: 94.9% | Aceclidine Potency, Three Month Result [5, 12]: 97.5% | Percent Change Between Initial and Six Month Results [5, 12]: −4.8% | Aceclidine Potency, One Month Result [5, 13]: 103.0% | Aceclidine Potency, Six Month Result [5, 13]: 96.0% | Aceclidine Potency, Three Month Result [5, 13]: 99.0% | Percent Change Between Initial and Six Month Results [5, 13]: 3.6% | Aceclidine Potency, One Month Result ([5]; Pouched (−25 C.)): 98.5% | Aceclidine Potency, Six Month Result ([5]; Pouched (−25 C.)): 103.1% | Aceclidine Potency, Three Month Result ([5]; Pouched (−25 C.)): 101.4% | Percent Change Between Initial and Six Month Results ([5]; Pouched (−25 C.)): 3.5% | Aceclidine Potency, Initial Result ([5]; Pouched (−25 C.) line, initial of second group): 99.60% | Aceclidine Potency, One Month Result ([5]; Unpouched (5 C.)): 99.3% | Aceclidine Potency, Six Month Result ([5]; Unpouched (5 C.)): 100.5% | Aceclidine Potency, Three Month Result ([5]; Unpouched (5 C.)): 100.0% | Aceclidine Potency, Two Month Result ([5]; Unpouched (5 C.)): 102.0% | Percent Change Between Initial and Six Month Results ([5]; Unpouched (5 C.)): 0.8% | Aceclidine Potency, Initial Result ([5]; Unpouched (5 C.) line, initial of first group): 99.70% | Aceclidine Potency, One Month Result ([5]; Unpouched (25 C.)): 98.2% | Aceclidine Potency, Six Month Result ([5]; Unpouched (25 C.)): 97.7% | Aceclidine Potency, Three Month Result ([5]; Unpouched (25 C.)): 98.2% | Aceclidine Potency, Two Month Result ([5]; Unpouched (25 C.)): 101.9% | Percent Change Between Initial and Six Month Results ([5]; Unpouched (25 C.)): −2.0% | Stability of Aceclidine, 1 month ([6]; 4° C., Example 10 composition): 93% | Stability of Aceclidine, 2 months ([6]; 4° C., Example 10 composition): 92% | Stability of Aceclidine, 3 months ([6]; 4° C., Example 10 composition): 88% | Stability of Aceclidine, Initial ([6]; 4° C., Example 10 composition): 100% | Stability of Aceclidine, 1 month ([6]; 25° C., Example 10 composition): 92% | Stability of Aceclidine, 2 months ([6]; 25° C., Example 10 composition): 75% | Stability of Aceclidine, 3 months ([6]; 25° C., Example 10 composition): 50% | Stability of Aceclidine, Initial ([6]; 25° C., aceclidine 1.50%, tropicamide 0.042%, polyoxyl 40 stearate 5.5%, mannitol 2.5%, citrate 3 mM, pH 4.75): 100% | extended time period of near vision improvement ([7]; 1.55% w/v aceclidine in saline solution): 6 h | distance vision ([7]; 1.55% w/v aceclidine in saline solution, baseline 20.20): without any effect on the baseline distance vision | near vision ([7]; 1.55% w/v aceclidine in saline solution, baseline near 20.100): 20.40 | near vision ([7]; aceclidine + 0.042% w/v tropicamide in the carrier): 20.15 | near vision ([7]; aceclidine in carrier (5.5% HPβCD, 0.75% CMC, 0.25% NaCl, 0.01% BAK), better than): > 20.20 | anterior chamber shallowing ([3]; aceclidine with further inclusion of a cycloplegic agent): 0.04 mm | Effect [8, 14]: 7.00 h and 12.00 h | Effect [8, 15]: 8.00 h (4×) and 9.00 h | L Post Dist [8, 14]: 20.20 and 20.15 | L Post Dist [8, 15]: 20.20 (2×) and 20.30 and 20.25 (2×) | L Post Near ([8]; left eye near vision (15 inches), aceclidine 1.5% w/v in HPβCD/CMC/NaCl/BAK, one line per subject): 20.15 (3×) and 20.30 and 20.20 | L Post Near ([8]; left eye near vision, aceclidine 1.1% w/v + 0.125% w/v tropicamide, subjects 4 and 5): 20.25 and 20.15 | R Post Dist ([8]; aceclidine 1.1% w/v + 0.125% w/v tropicamide, same carrier, subjects 4 and 5): 20.20 and 20.15 | R Post Dist [8, 15]: 20.20 (3×) and 20.25 (2×) | R Post Near ([8]; right eye near vision (15 inches), aceclidine 1.5% w/v in HPβCD/CMC/NaCl/BAK, one line per subject): 20.15 (3×) and 20.20 and 20.25 | R Post Near ([8]; right eye near vision, aceclidine 1.1% w/v + 0.125% w/v tropicamide, subjects 4 and 5): 20.25 and 20.20 | Aceclidine Total Related Substances, One Month Result [9, 16]: 0.54% | Aceclidine Total Related Substances, Six Month Result [9, 16]: 0.47% | Aceclidine Total Related Substances, Three Month Result [9, 16]: 0.35% | Aceclidine Total Related Substances, Total % Change [9, 16]: 0.06% | Aceclidine Total Related Substances, One Month Result [9, 17]: 0.50% | Aceclidine Total Related Substances, Six Month Result [9, 17]: 0.00% | Aceclidine Total Related Substances, Three Month Result [9, 17]: 0.18% | Aceclidine Total Related Substances, Total % Change [9, 17]: −0.41% | Aceclidine Total Related Substances, One Month Result [9, 18]: 0.55% | Aceclidine Total Related Substances, Six Month Result [9, 18]: 0.36% | Aceclidine Total Related Substances, Three Month Result [9, 18]: 1.26% | Aceclidine Total Related Substances, Total % Change [9, 18]: −0.05% and 0.05% | Aceclidine Total Related Substances, One Month Result [9, 19]: 0.74% | Aceclidine Total Related Substances, Six Month Result [9, 19]: 0.00% | Aceclidine Total Related Substances, Three Month Result [9, 19]: 0.31% | Aceclidine Total Related Substances, Total % Change [9, 19]: −0.41% | Aceclidine Total Related Substances, One Month Result ([9]; Pouched (−20 C.)): 0.74% | Aceclidine Total Related Substances, Six Month Result ([9]; Pouched (−20 C.)): 0.00% | Aceclidine Total Related Substances, Three Month Result ([9]; Pouched (−20 C.)): 0.25% | Aceclidine Total Related Substances, Total % Change ([9]; Pouched (−20 C.)): −0.41% | Aceclidine Total Related Substances, One Month Result ([9]; Unpouched (5 C.)): 0.55% | Aceclidine Total Related Substances, Six Month Result ([9]; Unpouched (5 C.)): 0.49% | Aceclidine Total Related Substances, Three Month Result ([9]; Unpouched (5 C.)): 0.05% | Aceclidine Total Related Substances, Total % Change ([9]; Unpouched (5 C.)): 0.08% | Aceclidine Total Related Substances, Two Month Result ([9]; Unpouched (5 C.)): 0.51% | Aceclidine Total Related Substances, Initial Result ([9]; Unpouched (5 C.) line, initial): 0.41% | Aceclidine Total Related Substances, One Month Result ([9]; Unpouched (25 C.)): 0.58% | Aceclidine Total Related Substances, Six Month Result ([9]; Unpouched (25 C.)): 4.87% | Aceclidine Total Related Substances, Three Month Result ([9]; Unpouched (25 C.)): 1.39% | Aceclidine Total Related Substances, Total % Change ([9]; Unpouched (25 C.)): 4.46% | Aceclidine Total Related Substances, Two Month Result ([9]; Unpouched (25 C.)): 1.45%
